From US10005773B2, “1-(4-pyrimidinyl)-1H-pyrrolo[3,2-c]pyridine derivatives as NIK inhibitors” (Janssen Pharmaceutica NV, priority 2013, dated 2018)

Key:
JJN-3 cells = test: Biological Assay C: antiproliferative activity on JJN-3 cells (CellTiter-Glo); type: cell-based; details: Homo sapiens, 72 hr treatment
Description: (§1) Determination of Antiproliferative Activity on LP-1, L-363 and JJN-3 Cells
(§2) All compounds tested were dissolved in DMSO and further dilutions were made in culture medium. Final DMSO concentration was 0.3% (v/v) in cell proliferation assays. Viability was assessed using CellTiter-Glo cell viability assay kit (Promega). The human LP-1, L-363 and JJN-3 cells (DSMZ) were cultured in RPMI 1640 medium supplemented with 2 mM L-glutamine, and 10% fetal calf serum (PAA). Cells were routinely kept as suspension cells at 37° C. in a humidified 5% CO2 atmosphere. Cells were passaged at a seeding density of 0.2×10^6/ml twice a week. Cells were seeded in black tissue culture treated 96-well plates (Perkin Elmer). Densities used for plating ranged from 2,000 to 6,000 cells per well in a total volume of 75 μl medium. After twenty four hours, drugs and/or solvents were added (25 μl) to a final volume of 100 μl. Following 72 hr of treatment plates were removed from the incubator and allowed to equilibrate to room temperature for approx 10 min. 100 μl CellTiter-Glo reagent was added to each well that was then covered (Perkin Elmer Topseal) and shaken on plate shaker for 10 min. Luminescence was measured on a HTS Topcount (Perkin Elmer). Within an experiment, the results for each treatment were the mean of 2 replicate wells. For initial screening purposes, compounds were tested using a 9 point dilution curve (serial 1:3 dilutions). For each experiment, controls (containing no drug) and a blank incubation (containing cells read at the time of compound addition) were run in parallel. The blank value was subtracted from all control and sample values. For each sample, the mean value for cell growth (in relative light units) was expressed as a percentage of the mean value for cell growth of the control.

[1] = target: T1, Recombinant Human NF-kappaB-Inducing Kinase (NIK/MAP3K14) (Homo sapiens, UniProt Q99558); test: Biological Assay A2: inhibition of auto-phosphorylation of recombinant human NIK/MAP3K14 (AlphaScreen); type: biochemical; details: 25 microM ATP, 0.2 nM NIK/MAP3K14, 1 h at 25° C., averaged over all batches, read-out: Alpha-Screen IC50
Description: Inhibition of Auto-Phosphorylation of Recombinant Human NF-kappaB-Inducing Kinase (NIKIMAP3K14) Activity (AlphaScreen®)
NIK/MAP3K14 auto-phosphorylation activity was measured using the AlphaScreen® (ascreen) format (Perkin Elmer). All compounds tested were dissolved in dimethyl sulfoxide (DMSO) and further dilutions were made in assay buffer. Final DMSO concentration was 1% (v/v) in assays. Assay buffer was 50 mM Tris pH 7.5 containing 1 mM EGTA (ethylene glycol tetraacetic acid), 1 mM DTT (dithiothreitol), 0.1 mM Na3VO4, 5 mM MgCl2, 0.01% Tween® 20. Assays were carried out in 384 well Alphaplates (Perkin Elmer). Incubations consisted of compound, 25 microM Adenosine-5′-triphosphate (ATP), and 0.2 nM NIK/MAP3K14. Incubations were initiated by addition of GST-tagged NIK/MAP3K14 enzyme, carried out for 1 h at 25° C. and terminated by addition of stop buffer containing anti-phospho-IKK Ser176/180 antibody. Protein A Acceptor and Glutathione-Donor beads were added before reading using an EnVision® Multilabel Plate Reader (Perkin Elmer). Signal obtained in the wells containing blank samples was subtracted from all other wells and IC50's were determined by fitting a sigmoidal curve to % inhibition of control versus Log10 compound concentration.

L-363 cells = test: Biological Assay C: antiproliferative activity on L-363 cells (CellTiter-Glo); type: cell-based; details: Homo sapiens, 72 hr treatment
Description: as §1, §2

LP-1 cells = test: Biological Assay C: antiproliferative activity on LP-1 cells (CellTiter-Glo); type: cell-based; details: Homo sapiens, 72 hr treatment
Description: as §1, §2

[2] = target: T1, Recombinant Human NF-kappaB-Inducing Kinase (NIK/MAP3K14); test: Biological Assay A: inhibition of recombinant human NIK/MAP3K14 activity (MSD, MBP substrate); details: 25 μM ATP, 10 nM NIK/MAP3K14, 1 h at 25° C.; averaged over all batches; read-out: Biochemical (MSD MBP) IC50
Description: Inhibition of Recombinant Human NF-kappaB-Inducing Kinase (NIKIMAP3K14) Activity
Assay buffer was 50 mM Tris pH 7.5 containing 1 mM ethylene glycol tetraacetic acid (EGTA), 1 mM dithiothreitol (DTT), 0.1 mM Na3VO4, 5 mM MgCl2, 0.01% Tween® 20. Assays were carried out in 384 well Mesoscale high binding plates which had been coated with myelin basic protein (MBP) and blocked with bovine serum albumin to prevent non-specific protein binding. All compounds tested were dissolved in dimethyl sulfoxide (DMSO) and further dilutions were made in assay buffer. Final DMSO concentration was 1% (v/v) in assays. Incubations consisted of compound (1% DMSO in control and blank wells), 25 μM Adenosine-5′-triphosphate (ATP), and 10 nM NIK/MAP3K14 substituting enzyme with buffer in the blank wells. Incubations were carried out for 1 h at 25° C. and were followed by washing and sequential incubation with rabbit anti-phospho-MBP and anti-rabbit Ig Sulfotag antibody before reading bound Sulfotag on a Mesoscale Discovery. Signal obtained in the wells containing blank samples was subtracted from all other wells and IC50's were determined by fitting a sigmoidal curve to % inhibition of control versus Log10 compound concentration.

[3] = system: P-IKKα levels in L363 cells; test: Biological Assay B: effect of compounds on P-IKKα levels in L363 cells; type: cell-based; details: Homo sapiens, L-363, BAFF stimulated, 2 hr treatment, averaged over all batches, read-out: IKKα Cellular IC50
Description: Effect of Compounds on P-IKKα Levels in L363 Cells
All compounds tested were dissolved in DMSO and further dilutions were made in culture medium. Final DMSO concentration was 1% (v/v) in cell assays. The human L363 cells (ATCC) were cultured in RPMI 1640 medium supplemented with GlutaMax and 10% fetal calf serum (PAA). Cells were routinely maintained at densities of 0.2×10^6 cells per ml-1×10^6 cells per ml at 37° C. in a humidified 5% CO2 atmosphere. Cells were passaged twice a week splitting back to obtain the low density. Cells were seeded in 96 well plates (Nunc 167008) at 2×10^6 per ml media in a volume of 75 μl per well plus 25 μl 1 μg/ml recombinant human B-cell activating factor (BAFF/BLyS/TNFSF13B). Seeded cells were incubated at 37° C. in a humidified 5% CO2 atmosphere for 24 hr. Drugs and/or solvents were added (20 μl) to a final volume of 120 μl. Following 2 hr treatment plates were removed from the incubator and cell lysis was achieved by the addition of 30 μl 5× lysis buffer followed by shaking on a plate shaker at 4° C. for 10 min. At the end of this incubation lysed cells were centrifuged at 800×g for 20 min at 4° C. and the lysate was assessed for P-IKKα levels by sandwich immuno-assay carried out in anti-rabbit antibody coated Mesoscale plates. Within an experiment, the results for each treatment were the mean of 2 replicate wells. For initial screening purposes, compounds were tested using an 8 point dilution curve (serial 1:3 dilutions). For each experiment, controls (containing MG132 and BAFF but no test drug) and a blank incubation (containing MG132 and BAFF and 10 μM ADS125117, a test concentration known to give full inhibition) were run in parallel. The blank incubation value was subtracted from all control and sample values. To determine the IC50 a sigmoidal curve was fitted to the plot of % inhibition of control P-IKKα levels versus Log10 compound concentration.

T1 sequence (Q99558 whole entry): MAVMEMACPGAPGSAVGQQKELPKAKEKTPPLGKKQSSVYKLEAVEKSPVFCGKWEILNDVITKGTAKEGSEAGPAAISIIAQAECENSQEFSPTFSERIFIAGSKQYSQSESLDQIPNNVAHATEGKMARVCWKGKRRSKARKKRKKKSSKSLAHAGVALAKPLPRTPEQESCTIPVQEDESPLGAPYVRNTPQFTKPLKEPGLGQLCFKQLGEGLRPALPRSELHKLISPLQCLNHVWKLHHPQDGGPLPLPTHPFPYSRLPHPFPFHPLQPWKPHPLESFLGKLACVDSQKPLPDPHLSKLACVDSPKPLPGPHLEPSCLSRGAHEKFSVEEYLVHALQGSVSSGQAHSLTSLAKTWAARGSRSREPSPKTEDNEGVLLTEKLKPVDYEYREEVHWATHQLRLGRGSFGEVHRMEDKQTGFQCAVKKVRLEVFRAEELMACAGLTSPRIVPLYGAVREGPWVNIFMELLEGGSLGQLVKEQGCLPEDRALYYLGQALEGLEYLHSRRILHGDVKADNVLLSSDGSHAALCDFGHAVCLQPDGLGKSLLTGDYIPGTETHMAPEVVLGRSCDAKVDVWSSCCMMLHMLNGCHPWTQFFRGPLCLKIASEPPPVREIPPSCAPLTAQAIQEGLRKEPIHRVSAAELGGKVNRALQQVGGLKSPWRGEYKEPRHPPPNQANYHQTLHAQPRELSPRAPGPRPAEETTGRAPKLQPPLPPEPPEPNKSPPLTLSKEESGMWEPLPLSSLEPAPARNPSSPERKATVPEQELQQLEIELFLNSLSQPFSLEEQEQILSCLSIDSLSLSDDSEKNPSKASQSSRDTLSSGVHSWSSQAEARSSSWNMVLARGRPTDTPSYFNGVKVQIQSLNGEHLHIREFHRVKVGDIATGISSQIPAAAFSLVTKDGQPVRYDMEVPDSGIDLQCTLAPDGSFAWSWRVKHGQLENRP

| SMILES | IC50 [1] [nM] | IC50 [2] [nM] | IC50 [3] [nM] | EC50 (JJN-3 cells) [nM] | EC50 (L-363 cells) [nM] | EC50 (LP-1 cells) [nM] |
| --- | --- | --- | --- | --- | --- | --- |
| Nc1nccc(-n2ccc3cnc(C#CC4(O)CCCC4)cc32)n1 [Compound 1] |  | 8.9 | 13 | 320 | 673 | 929 |
| CN(C)C(=O)c1cn(-c2ccnc(N)n2)c2cc(C#CC(C)(C)O)ncc12 [Compound 2] | 180 | 73 | 1060 | 3320 | 5030 | > 30000 |
| CC(C)(O)C#Cc1cc2c(ccn2-c2ccnc(N)n2)cn1 [Compound 3] |  |  | 13 | 46 | 43 | 84 |
| CNc1nccc(-n2ccc3cnc(C#CC(C)(C)O)cc32)n1 [Compound 6] | 80 | 55 | 204 | 744 | 774 | 929 |
| CC(C)(O)C#Cc1cc2c(cn1)c(C1CCN(CCF)CC1)cn2-c1nc(N)ncc1F [Compound 40] | 74 |  |  | 151 | 93 | 259 |
| CN1CCC(c2cn(-c3ccnc(N)n3)c3cc(C#CC(C)(O)C4CC4)ncc23)CC1 (stereo not drawn) [Compound 41] | 78 |  |  | 311 | 213 | 3240 |
| CC(O)(C#Cc1cc2c(cn1)c(C1(F)CN(C3CC3)C1)cn2-c1ccnc(N)n1)C1CC1 (stereo not drawn) [Compound 42] | 638 |  |  | 2790 | 1540 | 18200 |
| CC(O)(C#Cc1cc2c(cn1)c(C1CCN(CCC(F)(F)F)CC1)cn2-c1ccnc(N)n1)C1CC1 (stereo not drawn) [Compound 43] | 67 |  |  | 442 | 292 | 461 |
| CC(O)(C#Cc1cc2c(cn1)c(C1CCN(C3CC3)CC1)cn2-c1ccnc(N)n1)C1CC1 (stereo not drawn) [Compound 44] | 71 |  |  | 202 | 98 | 251 |
| CC(O)(C#Cc1cc2c(cn1)c(C1CCCN(CCC(F)(F)F)C1)cn2-c1nc(N)ncc1F)C1CC1 (stereo not drawn) [Compound 48] | 227 |  |  | 1670 | 1000 | 2230 |
| [2H]C([2H])([2H])C(O)(C#Cc1cc2c(cn1)c(C1CCN(CCC(F)(F)F)CC1)cn2-c1nc(N)ncc1F)C([2H])([2H])[2H] [Compound 49] | 69 |  |  | 231 | 130 | 244 |

The next lines start with results.

| IC50 [1] [nM] | IC50 [2] [nM] | IC50 [3] [nM] | SMILES | EC50 (JJN-3 cells) [nM] | EC50 (L-363 cells) [nM] | EC50 (LP-1 cells) [nM] |
| --- | --- | --- | --- | --- | --- | --- |
| 13 |  |  | CC(O)(C#Cc1cc2c(cn1)c(C1CCN(CCC(F)(F)F)CC1)cn2-c1ccnc(N)n1)C1CC1 (single isomer, unassigned) [Compound 51] | 220 | 108 | 199 |
| 5.6 | 3.9 | 7.3 | Nc1nccc(-n2ccc3cnc(C#CC4(O)CC4)cc32)n1 [Compound 4] | 56 | 62 | 122 |
| 10 | 2.4 | 18 | CC(O)(C#Cc1cc2c(ccn2-c2ccnc(N)n2)cn1)c1nccs1 (stereo not drawn) [Compound 5] | 237 | 2920 | 3310 |
| 38 |  |  | CC(CC#N)c1cn(-c2nc(N)ncc2F)c2cc(C#CC(C)(C)O)ncc12 (stereo not drawn) [Compound 38] | 614 | 261 | 2600 |
| 36 |  |  | COCCCc1cn(-c2nc(N)ncc2F)c2cc(C#CC(C)(C)O)ncc12 [Compound 39] | 579 | 369 | 849 |
| 49 |  |  | [2H]C([2H])([2H])C(O)(C#Cc1cc2c(cn1)c(C1CCN(C3CC3)CC1)cn2-c1ccnc(N)n1)C([2H])([2H])[2H] [Compound 45] | 19 | 8.3 | 29 |
| 56 |  |  | CC(O)(C#Cc1cc2c(cn1)c(C1CCN(CCC(F)(F)F)CC1)cn2-c1nc(N)ncc1F)C1CC1 (stereo not drawn) [Compound 46] | 1090 | 469 | 979 |
| 34 |  |  | CC(O)(C#Cc1cc2c(cn1)c(C1CCN(CCCF)CC1)cn2-c1nc(N)ncc1F)C1CC1 (stereo not drawn) [Compound 47] | 242 | 113 | 237 |
| 30 |  |  | [2H]C([2H])([2H])C(O)(C#Cc1cc2c(cn1)c(C1CCN(CCC(F)(F)F)CC1)cn2-c1ccnc(N)n1)C([2H])([2H])[2H] [Compound 50] | 39 | 23 | 41 |
| 31 |  |  | [2H]C([2H])([2H])C(O)(C#Cc1cc2c(cn1)c(C1CCN(Cc3ccccc3)CC1)cn2-c1ccnc(N)n1)C([2H])([2H])[2H] [Compound 52] | 89 | 49 | 65 |
| 35 |  |  | [2H]C([2H])([2H])N1CCC(c2cn(-c3ccnc(N)n3)c3cc(C#CC(O)(C([2H])([2H])[2H])C([2H])([2H])[2H])ncc23)CC1 [Compound 53] | 32 | 12 | 107 |
| 42 |  |  | Cc1cc(C(C)(O)C#Cc2cc3c(cn2)c(C2CCN(C)CC2)cn3-c2ccnc(N)n2)no1 (stereo not drawn) [Compound 54] | 656 | 213 | 2530 |
| 26 |  |  | CN1CCC(c2cn(-c3ccnc(N)n3)c3cc(C#CC(C)(O)c4nccs4)ncc23)CC1 (stereo not drawn) [Compound 56] | 2490 | 1240 | 7890 |
